In paper PMC11742080, “Decavanadate Compound Displays In Vitro and In Vivo Antitumor Effect on Melanoma Models” (Bioinorganic Chemistry and Applications, 2025):
Values joined by “and” are separate entries in the source; they are usually repeats but may differ in a detail not shown here. Identical values can stand only once.

Experiments:
Swiss albino mice = test: In vivo toxicity/safety assessment, 12 days i.p.; conditions: for ALT / AST / Creatinine: plasma
Protocol: In order to investigate the safety of the Mg2Na2V10O28·20H2O compound, three doses of 20, 50, and 100 μg were tested on male Swiss albino mice of ∼20 g weight each. Mice were randomly allocated in four groups of eight mice each. These doses correspond to 1, 2.5, and 5 mg/kg, respectively. A stock solution of 7.5 mg/mL (5.5 mM) was first prepared in PBS (1x). Dilutions were done to obtain 3 solutions of 0.2 mg/mL (146 μM), 0.5 mg/mL (366 μM), and 1 mg/mL (732 μM) in PBS, from which a volume of 100 μL was injected to each mouse, corresponding to the three doses. These doses were chosen based on our previous study. Mice of the CTR group received 100 μL of PBS. Decavanadate compound or vehicle was administered daily by intraperitoneal injection for 12 consecutive days in the morning between 09:00 and 10:00 a.m.
Animals were observed individually for general behavior, toxicity symptoms, and mortality during the first 30 min and then daily during the experiment. The body weights were measured at the beginning and at the end of the […]. On Day 12, blood samples were drawn from the facial vein of each mouse, using capillary tubes, containing heparin (as an anticoagulant component), for biochemical parameters studies. Mice were then sacrificed by cervical dislocation, and their organs (liver and kidney) were excised. The organs were then fixed in 10% buffered formalin for histopathological examination.
Plasma samples were obtained by blood centrifugation at 3000 rpm for 10 min and kept at −20°C. The activities of hepatic enzymes, such as aspartate aminotransferase (AST) and alanine aminotransferase (ALT), and creatinine levels were assessed with commercially available diagnostic kits supplied by Biomaghreb Laboratories (Tunisia). Enzymatic activity was expressed in international units per liter (IU/L). Additionally, we focused on measuring the activity of enzymes involved in hepatic metabolism to evaluate the effect of decavanadate accumulation on liver function. Creatinine level was expressed in mg/L.
Liver and kidney organs in formalin were washed and dehydrated using alcohol. Paraffin-embedded sections were cut at 5-6 μm thickness and stained with hematoxylin and eosin for microscopic examination at 20x and 40x magnification.

[1] = tested on: DMBA/croton oil-induced skin lesions in Swiss albino mice; test: Chemical-induced (DMBA/croton oil) lesion model in mice; format: in vivo; conditions: cotreatment, 2.5 mg/kg s.c.
Protocol: Two days before the beginning of the experiment, we selected 32 male Swiss albino mice and clipped the hair on their backs in a 2 × 2 cm^2 area. The design of the experiment was performed as reported by Vähätupa et al. (Figure S1). The animals were randomly divided into […] (8 animals in each group): • i. CTR− group: represented the negative CTR group, where mice received 100 μL of acetone only. • ii. CTR+ group: served as the positive CTR group, where mice were treated […] with a single dose of DMBA (50 μg/100 μL acetone) on the shaven area on their backs. Seven days later, croton oil (50 μL/100 μL acetone) was applied twice a week until the end of the experiment (6 weeks). • iii. CT group (cotreatment group): animals received a single dose of DMBA (50 μg/100 μL acetone) on the shaven area on their backs. Seven days later, croton oil (50 μL/100 μL acetone) was applied twice. Then, mice received croton oil and 2.5 mg/kg of the decavanadate compound (dissolved in PBS) by subcutaneous injection on their backs. The Mg2Na2V10O28·20H2O compound was given to animals 15 min after each croton oil application from the third week until the sixth week (the end of the protocol).

[2] = tested on: IGR39 human melanoma cells; test: Wound healing (scratch) cell migration assay; format: cell-based; conditions: 24 h treatment
Protocol: Wound healing (or scratch) assay is a method to measure two-dimensional cell migration. An artificial gap is generated on a confluent cell monolayer, and the movement is tracked via microscopy or other imaging. Melanoma cells were seeded in 24-well plates at 15 × 10^4 cells per well and incubated for 24–48 h. After cells reached 90% confluence, wounds were generated using a 10 μL micropipette tip. Media were removed, and the cells were washed with 500 μL PBS and then incubated in a fresh medium containing different concentrations (not showing cytotoxic effect) of the decavanadate compound. After 24 h of treatment, cells were washed with PBS, fixed with cold ethanol, and stained with Giemsa. Images were acquired on an inverted microscope at T0 and after 24 h (T24). The percentage of cell migration was calculated using the following formula: cell migration(%)=[(T0 − T24))/(T0)] × 100 where T0 is the wound area at zero time and T24 is the wound area after 24 h. All the pictures were taken with a DM-IRE microscope (Leica, Rueil-Malmaison, France) coupled with a digital camera (CCD camera CoolSNAP FX, Princeton Instruments, Trenton, NJ).

[3] = tested on: B16-F10 murine melanoma cells; test: MTT cell viability assay, B16-F10; format: cell-based
Protocol: The MTT assay was first described as a sensitive, quantitative, and reliable colorimetric assay to measure the viability, proliferation, and activation of cells. Cell viability was assessed at 24 and 72 h of treatment to evaluate cytotoxicity and the effect on cell proliferation of the decavanadate compound, respectively. The concentrations of the decavanadate compound have been determined by weighing the compound in its crystal form and then solubilizing it in distilled water.
All cell lines were seeded in 96-well plates (Nunc, Roskilde, Denmark) at a density of 10^4 cells per well and were incubated overnight, before treatment with different concentrations of the decavanadate compound. After 24 or 72 h of treatment, fresh media solution containing MTT at 0.5 mg/mL was added to cells and incubated for 3 h at 37°C. The formed formazan crystals were then dissolved in DMSO, and the absorbance was measured at 560 nm using a BioTek EON Microplate Spectrophotometer (Fisher Scientific). Cell viability was expressed as a percentage of the viable cell number of the untreated cells (control [CTR]).
The concentration of the decavanadate compound required for 50% growth inhibition (IC50 value) was estimated as resulting in a 50% decrease in absorbance, compared to the CTR.

In the case of “dimagnesium disodium decavanadate icosahydrate [Mg2Na2V10O28·20H2O]”, the Liver histological analysis (Swiss albino mice; 50 μg (2.5 mg/kg), 12 days) is reported as “necrosis”, the Liver histological analysis (Swiss albino mice; 100 μg (5 mg/kg), 12 days) is reported as “lymphohistiocytic inflammatory infiltrate in the portal tract” and the “Biochemical parameters (AST, ALT, creatinine) versus control” value (Swiss albino mice; 1 mg/kg i.p. daily, 12 days) is reported as “comparable to the negative CTR”. The ALT (Swiss albino mice; 2.5 mg/kg i.p. daily, 12 days) was 48.75 ± 2.96 IU/L, the AST (Swiss albino mice; 2.5 mg/kg i.p. daily, 12 days) was 32.83 ± 1.09 IU/L and the Creatinine (Swiss albino mice; 2.5 mg/kg i.p. daily, 12 days) was 2.45 mg/L and 2.45 ± 0.28^∗ mg/L. For the same substance, the Kidney histology (Swiss albino mice; 2.5 mg/kg, 12 days) was “no difference compared to those of the CTR group”, the ALT (Swiss albino mice; 5 mg/kg i.p. daily, 12 days) was 81.67 ± 5.12^∗∗∗ IU/L and the AST (Swiss albino mice; 5 mg/kg i.p. daily, 12 days) was 45.63 ± 1.21^∗∗ IU/L. The Creatinine (Swiss albino mice; 5 mg/kg i.p. daily, 12 days) was 2.80 ± 0.312^∗∗ mg/L, the Kidney histology (Swiss albino mice; 5 mg/kg, 12 days) was “mild interstitial lymphocytic inflammatory infiltrate” and the “Mortality and signs of toxicity (weight loss, behavioral abnormalities)” value (Swiss albino mice; 1, 2.5 or 5 mg/kg, i.p. daily for 12 days, Swiss albino mice) was “No mortality or signs of toxicity”. For the same substance, the “Skin histology (dermal inflammatory infiltrate)” value [1] was “attenuation of this inflammatory state”, the “Mortality and behavior in DMBA/croton oil-treated mice” value ([1]; 6-week protocol) was “neither mortality nor changes in the behavior” and the IC50 [2] was 2.23 µM. The “IC50, IGR39 cell migration” value [2] was 3.16 mg/L, the IC50 ([3]; B16-F10, 24 h treatment) was 7.3 µM and the IC50 ([3]; B16-F10, 72 h treatment) was 2.8 µM.
